Assay results from US5157020A, “Synthetic senescent cell antigen” (Research Corporation Tech., Inc., priority 1990, dated 1992).

Target: T1, band 3 (Homo sapiens, UniProt P02730)
T1 construct: endogenous in cells; host or cells: stored red blood cells (middle-aged cells stored in Alsever's for 5 wks at 4 C)
T1 sequence (P02730 1-911): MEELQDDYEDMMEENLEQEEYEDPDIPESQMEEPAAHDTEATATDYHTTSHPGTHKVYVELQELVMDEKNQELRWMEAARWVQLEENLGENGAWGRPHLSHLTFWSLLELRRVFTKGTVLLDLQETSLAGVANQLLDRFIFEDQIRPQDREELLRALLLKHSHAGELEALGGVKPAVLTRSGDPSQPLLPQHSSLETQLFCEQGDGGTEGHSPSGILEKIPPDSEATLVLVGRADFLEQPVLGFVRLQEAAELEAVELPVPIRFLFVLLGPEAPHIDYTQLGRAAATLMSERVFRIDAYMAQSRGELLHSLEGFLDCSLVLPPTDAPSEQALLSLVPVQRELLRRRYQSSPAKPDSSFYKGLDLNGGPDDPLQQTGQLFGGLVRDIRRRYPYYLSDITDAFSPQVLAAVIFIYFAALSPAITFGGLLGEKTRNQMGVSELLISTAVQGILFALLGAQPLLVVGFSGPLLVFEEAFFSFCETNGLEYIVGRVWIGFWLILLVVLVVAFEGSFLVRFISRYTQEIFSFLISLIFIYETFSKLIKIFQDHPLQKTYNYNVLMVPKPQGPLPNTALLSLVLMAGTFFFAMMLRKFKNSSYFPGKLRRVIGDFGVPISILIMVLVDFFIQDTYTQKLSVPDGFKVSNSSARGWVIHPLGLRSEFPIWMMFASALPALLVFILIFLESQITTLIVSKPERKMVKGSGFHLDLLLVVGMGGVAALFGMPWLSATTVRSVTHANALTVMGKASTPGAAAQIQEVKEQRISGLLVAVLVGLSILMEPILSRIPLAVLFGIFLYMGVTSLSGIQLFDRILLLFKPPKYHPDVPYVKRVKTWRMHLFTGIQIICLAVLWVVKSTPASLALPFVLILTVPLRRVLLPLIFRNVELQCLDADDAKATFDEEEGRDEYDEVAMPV
Experiment: DIDS treatment of stored cells prior to incubation with senescent cell IgG
Format: cell-based
Conditions: stored cells incubated with 25 uM DIDS for 90 min at room temperature before senescent cell IgG
Procedure: Since DNP and DIDS modification of ANION 1 and COOH abolished inhibition of senescent cell IgG binding, we reasoned that DIDS binding to band 3 lysines in whole cells should interfere with senescent cell IgG binding. Stored cells were incubated with 25 uM DIDS for 90 min at room temperature prior to incubation with senescent cell IgG. […] Another possibility is that DIDS binding perturbs the configuration of the molecule so that the binding site is altered. However, since our studies indicate that the actual antigenic determinants reside on ANION 1 and COOH (Example 1), it is unlikely that a distant perturbation of the antigenic site by DIDS binding is responsible. It is more likely that a DIDS reactive lysine lies in or near enough to the antigenic site to cause steric hindrance.

## O=S(=O)(O)c1cc(N=C=S)ccc1CCc1ccc(N=C=S)cc1S(=O)(=O)O [DIDS, diisothiocyano dihydrostilbene disulphonate]
  inhibition of senescent cell IgG binding: 54±3%
